# Data from patent US20180371044A1, “PEPTIDOMIMETIC MACROCYCLES” (Aileron Therapeutics, Inc., priority 2015, published 2018).
# Where a SMILES comes first, the peptide text is derived from it. Bridges are numbered along the chain shown (N, C = ends). [ ]: non-standard residue; d: D form. The star is where a group is joined. Decanoyl(3,6,9-trioxa) = COCCOCCOCC(=O)*; NMeY = CN[C@@H](Cc1ccc(O)cc1)C(=O)O; R8 = C=CCCCCCC[C@@](C)(N)C(=O)O; S5 = C=CCCC[C@](C)(N)C(=O)O; Nle = CCCC[C@H](N)C(=O)O
# Key:
# [1] = Plasma compatibility; format: physicochemical
# Method: The plasma compatibility of exemplary peptidomimetic macrocycles was also determined. Peptidomimetic macrocycles with a plasma compatability value (PC) that is greater than 0.1 were determined as being plasma compatible.
# [2] = Plasma PK/PD study in rats; format: in vivo, rat; details: male Sprague-Dawley rats; for MRT / clearance / Vd / half-life / AUC(0-inf): rat, 3 mg/kg; for clearance: read-out: Clp (converted); for Vd: read-out: Vdss; for half-life: read-out: t ½ (converted); for AUC(0-inf): route not given
# Method: Five peptidomimetic macrocycles of the invention, as well as sermorelin, were studied to determine pharmacokinetic and pharmacodynamic parameters in rats. Male Sprague-Dawley rats (300 g, non-fasted, cannulated) were used. The study had three arms: IV administration, SC administration, and SC administration (vehicle control). For experiments using sermorelin, a dose level of 3 mg/kg IV/SC bolus was used (dose volume of […] dose and dose concentration of 1 mg/mL). The vehicle used was: 10 wt % N, N-Dimethylacetamide, 10 wt % DMSO, 2 wt % Solutol HS 15 in water for injection containing 45 mg/mL (4.5 wt %) Mannitol and 25 mM (0.38 wt %) Histidine (pH 7.5; 320 mOsm/kg). The peptide was first dissolved at high concentration in DMA and DMSO before a second dilution in Solutol vehicle.
# For experiments using peptidomimetic macrocycles, 0.1 mL of DMA and 0.1 mL of DMSO were used to combine with each mg of macrocycle (˜4.3-4.5 mg of macrocycle used in each experiment). Sonication was used to ensure complete solubilization. 0.8 mL of Solutol vehicle was used for each mg of macrocycle in DMA/DMSO. The solutions were mixed gently with pipet or light vortexing. Fresh vials were used for each day of dosing, and macrocycles were stored solid at −20° C. prior to formulation.
# For each study arm, 2 rats were bled (350 μL) at specific time points (5 min, 15 min, 30 min, 1 h, 2 h, 4 h, 8 h, 24 h, and 48 h) and a 150 μL bleed was performed just before dosing. Plasma was prepared into K2EDTA tubes by centrifuging for 20 minutes at 4° C. at 2000G maximum 30 minutes after collection. From each 350 μL bleed, 120 μL were transferred to one tube for PK studies and 50 μL to another tube for PD studies and frozen immediately. From the 150 μL bleed, 70 μL were transferred to one tube for PD studies and frozen immediately.
# [3] = target: T1, human GHRH receptor (hGHRHR) (Homo sapiens, UniProt Q02643); experiment: GHRHR agonism measured by cAMP (HTRF) in human 293 cells expressing hGHRHR; format: cell-based; details: 30 min at RT;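 further: receptor expressed transiently or stably, cells stimulated in serum-free medium, EC50 from a non-linear dose-response fit, maximal response defined by reference GHRH stimulation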
# T1 construct: expressed in transfected cells; host or cells: Human 293 cells
# T1 sequence (Q02643 23-423): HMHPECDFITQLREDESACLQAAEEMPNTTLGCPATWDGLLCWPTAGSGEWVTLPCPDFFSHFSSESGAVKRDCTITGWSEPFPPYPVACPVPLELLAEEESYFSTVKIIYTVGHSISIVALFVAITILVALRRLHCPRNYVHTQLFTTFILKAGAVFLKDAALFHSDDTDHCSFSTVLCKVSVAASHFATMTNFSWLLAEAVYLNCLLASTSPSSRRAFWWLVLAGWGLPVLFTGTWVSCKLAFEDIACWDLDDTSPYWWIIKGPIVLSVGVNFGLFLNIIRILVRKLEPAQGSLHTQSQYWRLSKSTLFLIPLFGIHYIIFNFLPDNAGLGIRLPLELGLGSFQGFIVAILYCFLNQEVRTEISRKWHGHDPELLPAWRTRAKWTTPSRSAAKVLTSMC
# Method: GHRH (1-29) and cross-linked peptidomimetic macrocycles were tested for agonism at the human GHRH receptor (hGHRHR) at various concentrations. Human 293 cells transiently or stably expressing hGHRHR were detached from cell culture flasks with versene (Life Technologies™), suspended in serum-free medium (50 k cells/assay point), and stimulated for 30 min at RT with GHRH (1-29) (Bachem™) or cross-linked peptidomimetic macrocycles. cAMP was quantified using an HTRF®-based assay (CisBio) and used according to the manufacturer's instructions. An EC50 for each agonist was calculated from a non-linear fit of response vs dose (GraphPad™ Prism). The maximum response was determined by stimulating with 10 μM GHRH (1-29). (+=>50 nm; ++=>25-50 nm; +++=>10-25 nm; ++++=>1-10 nm; +++++=≤1 nm).
compound,measurement,setting,value
CCCC[C@@H]1NC(=O)[C@H](C)NC(=O)[C@H](CC(C)C)NC(=O)[C@@](C)(NC(=O)[C@H](CCCCN)NC(=O)[C@H](CCCNC(=N)N)NC(=O)[C@H](Cc2ccc(O)cc2)NC(=O)[C@H](CO)NC(=O)[C@H](CCC(N)=O)NC(=O)[C@@H](NC(=O)[C@H](Cc2ccccc2)NC(=O)[C@@H](NC(=O)[C@H](C)NC(=O)[C@H](CC(=O)O)NC(=O)[C@@H](C)NC(=O)[C@@H](N)Cc2ccc(O)cc2)[C@@H](C)CC)[C@@H](C)O)CCCC=CCCC[C@@](C)(C(=O)N[C@@H](CO)C(=O)N[C@@H](C)C(=O)N[C@@H](CCCNC(=N)N)C(=O)N[C@@H](CCCCN)C(=O)N[C@@H](C)C(=O)N[C@@H](CC(C)C)C(=O)N[C@@H](CCC(N)=O)C(=O)N[C@@H](CC(=O)O)C(=O)N[C@H](C(=O)N[C@@H](CCCC)C(=O)N[C@@H](CO)C(=O)N[C@@H](CCCNC(=N)N)C(N)=O)[C@@H](C)CC)NC1=O [SP-106] (H-Y[dA]DAIFTQSYRK[S5]LA[Nle][S5]SARKALQDI[Nle]SR-NH2; staple 13-17),Plasma Compatability,[1],0.9 mg/mL
CCCC[C@H](NC(=O)[C@@H](NC(=O)[C@H](CC(=O)O)NC(=O)[C@H](CCC(N)=O)NC(=O)[C@H](CC(C)C)NC(=O)[C@H](C)NC(=O)[C@H](CCCCN)NC(=O)[C@H](CCCNC(=N)N)NC(=O)[C@H](C)NC(=O)[C@H](CO)NC(=O)[C@H](CC(C)C)NC(=O)[C@H](CCC(N)=O)NC(=O)[C@H](C)NC(=O)[C@H](CC(C)C)NC(=O)[C@@H](NC(=O)[C@H](CCCCN)NC(=O)[C@H](CCCNC(=N)N)NC(=O)[C@H](Cc1ccc(O)cc1)NC(=O)[C@H](CO)NC(=O)[C@H](C)NC(=O)[C@@H](NC(=O)[C@H](Cc1ccccc1)NC(=O)[C@@H](NC(=O)[C@]1(C)CCCC=CCCC[C@](C)(N)C(=O)N[C@@H](Cc2ccc(O)cc2)C(=O)N[C@@H](C)C(=O)N[C@@H](CC(=O)O)C(=O)N1)[C@@H](C)CC)[C@@H](C)O)C(C)C)[C@@H](C)CC)C(=O)N[C@@H](CO)C(=O)N[C@@H](CCCNC(=N)N)C(N)=O [SP-6] (H-[S5]YAD[S5]IFTASYRKVLAQLSARKALQDI[Nle]SR-NH2; staple 1-5),AUC Ext (%),[2],16.3%
same,MRT,[2],3.7 h
same,clearance,[2],0.128 L/h/kg
same,Vd,[2],0.474 L/kg
same,half-life,[2],20.6 h
same,AUC(0-inf),[2],23.5 µg·h/mL
same,EC50,[3],0.025 to 0.05 µM
CCCC[C@H](NC(=O)[C@@H](NC(=O)[C@H](CC(=O)O)NC(=O)[C@H](CCC(N)=O)NC(=O)[C@H](CC(C)C)NC(=O)[C@H](C)NC(=O)[C@H](CCCCN)NC(=O)[C@H](CCCNC(=N)N)NC(=O)[C@H](C)NC(=O)[C@H](CO)NC(=O)[C@]1(C)CCCC=CCCC[C@](C)(NC(=O)[C@H](CCCCN)NC(=O)[C@H](CCCNC(=N)N)NC(=O)[C@H](Cc2ccc(O)cc2)NC(=O)[C@H](CO)NC(=O)[C@H](CCC(N)=O)NC(=O)[C@@H](NC(=O)[C@H](Cc2ccccc2)NC(=O)[C@@H](NC(=O)[C@H](C)NC(=O)[C@H](CC(=O)O)NC(=O)[C@@H](C)NC(=O)[C@@H](N)Cc2ccc(O)cc2)[C@@H](C)CC)[C@@H](C)O)C(=O)N[C@@H](CC(C)C)C(=O)N[C@@H](C)C(=O)N[C@@H](C)C(=O)N1)[C@@H](C)CC)C(=O)N[C@@H](CO)C(=O)N[C@@H](CCCNC(=N)N)C(N)=O [SP-104] (H-Y[dA]DAIFTQSYRK[S5]LAA[S5]SARKALQDI[Nle]SR-NH2; staple 13-17),Plasma Compatability,[1],1.2 mg/mL
"CCCC[C@H](NC(=O)[C@@H](NC(=O)[C@H](CC(=O)O)NC(=O)[C@H](CCC(N)=O)NC(=O)[C@H](CC(C)C)NC(=O)[C@H](C)NC(=O)[C@H](CCCCN)NC(=O)[C@H](CCCNC(=N)N)NC(=O)[C@H](C)NC(=O)[C@H](CO)NC(=O)[C@]1(C)CCCC=CCCC[C@](C)(NC(=O)[C@H](CCCCN)NC(=O)[C@H](CCCNC(=N)N)NC(=O)[C@H](Cc2ccc(O)cc2)NC(=O)[C@H](CO)NC(=O)[C@H](CCC(N)=O)NC(=O)[C@@H](NC(=O)[C@H](Cc2ccccc2)NC(=O)[C@@H](NC(=O)[C@H](C)NC(=O)[C@H](CC(=O)O)NC(=O)[C@@H](C)NC(=O)[C@@H](N)Cc2ccc(O)cc2)[C@@H](C)CC)[C@@H](C)O)C(=O)N[C@@H](CC(C)C)C(=O)N[C@@H](C)C(=O)N[C@@H](CCC(N)=O)C(=O)N1)[C@@H](C)CC)C(=O)N[C@@H](CO)C(=O)N[C@@H](CCCNC(=N)N)C(N)=O (single isomer, unassigned) [SP-107]",Plasma Compatability,[1],1.6 mg/mL
CCCC[C@H](NC(=O)[C@@H](NC(=O)[C@H](CC(=O)O)NC(=O)[C@H](CCC(N)=O)NC(=O)[C@H](CC(C)C)NC(=O)[C@H](C)NC(=O)[C@H](CCCCN)NC(=O)[C@H](CCCNC(=N)N)NC(=O)[C@H](C)NC(=O)[C@H](CO)NC(=O)[C@]1(C)CCCC=CCCC[C@](C)(NC(=O)[C@H](CCCCN)NC(=O)[C@H](CCCNC(=N)N)NC(=O)[C@H](Cc2ccc(O)cc2)NC(=O)[C@H](CO)NC(=O)[C@H](CCC(N)=O)NC(=O)[C@@H](NC(=O)[C@H](Cc2ccccc2)NC(=O)[C@@H](NC(=O)[C@H](C)NC(=O)[C@H](CC(=O)O)NC(=O)[C@@H](C)NC(=O)[C@@H](N)Cc2ccc(O)cc2)[C@@H](C)CC)[C@@H](C)O)C(=O)N[C@@H](CC(C)C)C(=O)N[C@@H](C)C(=O)N[C@@H](CCC(=O)O)C(=O)N1)[C@@H](C)CC)C(=O)N[C@@H](CO)C(=O)N[C@@H](CCCNC(=N)N)C(N)=O [SP-105] (H-Y[dA]DAIFTQSYRK[S5]LAE[S5]SARKALQDI[Nle]SR-NH2; staple 13-17),Plasma Compatability,[1],1.2 mg/mL
"CCCC[C@H](NC(=O)[C@@H](NC(=O)[C@H](CC(=O)O)NC(=O)[C@H](CCC(N)=O)NC(=O)[C@H](CC(C)C)NC(=O)[C@H](C)NC(=O)[C@H](CCCCN)NC(=O)[C@H](CCCNC(=N)N)NC(=O)[C@H](C)NC(=O)[C@H](CO)NC(=O)[C@]1(C)CCCC=CCCC[C@](C)(NC(=O)[C@H](CCCCN)NC(=O)[C@H](CCCNC(=N)N)NC(=O)[C@H](Cc2ccc(O)cc2)NC(=O)[C@H](CO)NC(=O)[C@H](C)NC(=O)[C@@H](NC(=O)[C@H](Cc2ccccc2)NC(=O)[C@@H](NC(=O)[C@H](C)NC(=O)[C@H](CC(=O)O)NC(=O)[C@@H](C)NC(=O)[C@H](Cc2ccc(O)cc2)NC(=O)COCCOCCOC)[C@@H](C)CC)[C@@H](C)O)C(=O)N[C@@H](CC(C)C)C(=O)N[C@@H](C)C(=O)N[C@@H](CCC(N)=O)C(=O)N1)[C@@H](C)CC)C(=O)N[C@@H](CO)C(=O)N[C@@H](CCCNC(=N)N)C(N)=O [SP-135] ({Decanoyl(3,6,9-trioxa)}-Y[dA]DAIFTASYRK[S5]LAQ[S5]SARKALQDI[Nle]SR-NH2; staple 13-17; N-terminus and C-terminus assumed)",Plasma Compatability,[1],1.6 mg/mL
CCCC[C@@H]1NC(=O)[C@H]([C@@H](C)CC)NC(=O)[C@H](CC(=O)O)NC(=O)[C@H](CCC(N)=O)NC(=O)[C@H](CC(C)C)NC(=O)[C@H](C)NC(=O)[C@](C)(NC(=O)[C@H](CCCNC(=N)N)NC(=O)[C@H](C)NC(=O)[C@H](CO)NC(=O)[C@H](CC(C)C)NC(=O)[C@H](CCC(N)=O)NC(=O)[C@H](C)NC(=O)[C@H](CC(C)C)NC(=O)[C@@H](NC(=O)[C@H](CCCCN)NC(=O)[C@H](CCCNC(=N)N)NC(=O)[C@H](Cc2ccc(O)cc2)NC(=O)[C@H](CO)NC(=O)[C@H](C)NC(=O)[C@@H](NC(=O)[C@H](Cc2ccccc2)NC(=O)[C@@H](NC(=O)[C@H](C)NC(=O)[C@H](CC(=O)O)NC(=O)[C@H](C)NC(=O)[C@H](Cc2ccc(O)cc2)NC)[C@@H](C)CC)[C@@H](C)O)C(C)C)CCCCCCC=CCCC[C@@](C)(C(=O)N[C@@H](CCCNC(=N)N)C(N)=O)NC1=O [SP-32] (H-[NMeY]ADAIFTASYRKVLAQLSAR[R8]ALQDI[Nle][S5]R-NH2; staple 21-28; N-terminus and C-terminus assumed),AUC Ext (%),[2],3.0%
same,MRT,[2],2.3 h
same,clearance,[2],0.081 L/h/kg
same,Vd,[2],0.19 L/kg
same,half-life,[2],9.7 h
same,AUC(0-inf),[2],37 µg·h/mL
